Data published in patent US5137811A, “Method for diagnosing periodontal diseases with a substrate specific for aminopeptidase activity of periodontopathic bacteria” (Sunstar Kabushiki Kaisha, priority 1986, dated 1992).
Where a SMILES comes first, the peptide text is derived from it. The star is where a group is joined. βNA = c1ccc2cc(N*)ccc2c1; Cbz = O=C(OCc1ccccc1)*

Assays:
Capnocytophaga sp. = test: Hydrolytic activity of oral anaerobe cell suspension on aminopeptidase substrates (Experiment 1); format: cell-based; settings: four strains, substrate 0.2 mM, pH 7.0, 37° C., 60 minutes, Table 1
Method in brief: (§1)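 Treponema grown anaerobically in TYGVS (37 °C, 7 days) and other strains in brain heart infusion (37 °C, 48–72 h), then diluted to A660 1.0. Cells reacted 60 min at 37 °C with β-naphthylamine-derived substrates (0.2 mM solution, 0.1 M Tris-HCl pH 7.0). Garnet GBC coupling, A525 after 15 min; activity graded from mean released β-naphthylamine per strain.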

Fusobacterium nucleatum [1] = test: as above; format: cell-based; settings: three strains, substrate 0.2 mM, pH 7.0, 37° C., 60 minutes, Table 1
Method in brief: as §1

Bacteroides gingivalis = test: as above; format: cell-based; settings: five strains, substrate 0.2 mM, pH 7.0, 37° C., 60 minutes, Table 1
Method in brief: as §1

Treponema denticola [2] = test: as above; format: cell-based; settings: four strains, substrate 0.2 mM, pH 7.0, 37° C., 60 minutes, Table 1
Method in brief: as §1

[3] = system: Actinobacillus actinomycetemcomitans; test: as above; format: cell-based; settings: four strains, substrate 0.2 mM, pH 7.0, 37° C., 60 minutes, Table 1
Method in brief: as §1

[4] = system: periodontopathic bacteria specific aminopeptidase activity; test: Hydrolytic activity of saliva supernatant (Experiment 7); format: biochemical; settings: 37° C. for 4 hours, Table 7
Experimental: (§2) Specimens of gingival crevicular fluid were collected with paper points from five subjects who were considered to be healthy from their clinical state, six subjects with gingivitis and six subjects with periodontitis. Each specimen was dispersed in Ringer's solution (1.5 ml), and the relative amount of spirochete to total bacteria: [formula] was determined with a phase contrast microscope. Further, the Ringer's solution (0.3 ml) was tested for hydrolytic activity using the substrate solution prepared in the same manner as described in Experiment 1. As substrates, there were used compounds of the formula [1], i.e., N-benzoylvalyl-glycyl-arginine-β-naphthylamide (BzVGR) and N-carbobenzoxy-valyl-glycyl-arginine-β-naphthylamide (CxVGR) were used.
(§3) A saliva mixture was collected from a group consisting of ten healthy subjects and centrifuged to obtain a supernatant. Likewise, centrifuged supernatants were obtained from a group of ten subjects with adult periodontitis and a group of four localized juvenile periodontitis. The supernatant was used as a specimen and its hydrolytic activity was determined according to the same manner as described in Experiment 4 except that the reaction was carried out at 37° C. for 4 hours. As the substrates, there were used N-carbobenzoxy-valyl-glycyl-arginine-p-nitrophenol (CxVGR-pNP), N-carbobenzoxy-valyl-glycylarginine-4-methoxy-2-naphthylamide (CxVGR-4NA) and N-carbobenzoxy-valyl-glycyl-arginine-β-naphthylamide (CxVGR-βNA). Color was developed by using lN sodium hydroxide for CxVGR-pNP and Fast Blue BB for CxVGR-4NA and CxVGR-βNA.

[5] = system: periodontopathic bacteria specific aminopeptidase activity; test: Hydrolytic activity of gingival crevicular fluid specimens, OD525 (Experiment 6); format: biochemical
Experimental: (§4) Substrate compounds for aminopeptidase enzyme having various color developing groups derived from β-naphthylamine were dissolved in 0.1M Tris-HCl buffer (pH 7.0) at the concentration of 0.2 mM to obtain substrate solutions.
(§5) To the substrate solution (1.5 ml) was added the above cell suspension (0.3 ml) and reacted at 37° C. for 60 minutes. After completion of the reaction, a coloring reagent [prepared by dissolving diazonium salt of Garnet GBC in 1M acetate buffer (containing 10% Tween 20, pH: 4.2) at the concentration of 0.5 mg/ml] was added and, after 15 minutes, the absorption at 525 nm was determined with a spectrophotometer.
as §2
According to the same manner as described in Experiment 4, hydrolytic activity was tested by using the compounds of the formulas and [2], i.e., glycyl-proline-βnaphthylamide (GP), N-benzoyl-arginyl-glycyl-phenylalanylproline-β-naphthylamide (BzRGFP), N-carbobenzoxy-valylglycyl-arginine-β-naphthylamide (CxVGR) and N-benzoylglycyl-arginine-β-naphthylamide (BzGR) alone or in combination. Hydrolytic activity was determined by measuring absorption at 525 nm (OD525) and expressed as follows.

[6] = system: periodontopathic bacteria specific aminopeptidase activity; test: Hydrolytic activity of gingival crevicular fluid specimens, visually evaluated (Experiment 4); format: biochemical; set-up: key: -: orange; +: dark orange; ++: brown; +++: dark brown
Experimental: as §4, §5, §2
In table 4, hydrolytic activity was visually evaluated and expressed as follows: […]

[7] = system: periodontopathic bacteria specific aminopeptidase activity; test: Hydrolytic activity of saliva supernatant, substrates alone or in combination (Experiment 9); format: biochemical; settings: 37° C. for 4 hours, Table 9
Experimental: as §3
According to the same manner as described in Experiment 7, hydrolytic activity was tested by using N-carbobenzoxy-valyl-glycyl-arginine-β-naphthylamide (CxVGR-βNA), N-benzoyl-arginyl-glycyl-phenylalanyl-proline-β-naphthylamide (BzRGFP-βNA), N-carbobenzoxy-valyl-glycylarginine-p-nitrophenol (CxVGR-pNP) and N-benzoyl-arginylglycyl-phenylalanyl-proline-p-nitrophenol (BzRGFP-pNP) alone or in combination as the substrates.

Actinomyces israelli = test: Hydrolytic activity of cell suspension, substrates alone or in combination (Experiment 3); format: cell-based; settings: two strains, Table 3
Experimental: (§6) The strains of Treponema were anaerobically cultivated using TYGVS media at 37° C. for 7 days, while other bacterial strains were cultivated using brain heart infusion broth at 37° C. for 48 to 72 hours. Each culture was diluted to obtain a bacterial cell suspension, the absorption at 660 nm of which was 1.0.
as §4, §5
(§7) On the basis of the average amount of released β-naphthylamine in each strain, the hydrolytic activity was expressed as follows: […]
(§8) According to the same manner as described in Experiment 1, periodontopathic bacteria specific aminopeptidase activity was tested by using four strains of Treponema denticola, five strains of B. gingivalis, four strains of Actinobacillus actinomycetemcomitans, two strains of Actinomyces israelli and three strains of Fusobacterium nucleatum. Abbreviations in Table 3 are the same as those in Tables 1 and 2. Hydrolytic activity "+++" means "40≤release amount<80 nmol/ml" and "++++" means "release amount≥80 nmol/ml".

Fusobacterium nucleatum [8] = test: as above; format: cell-based; settings: three strains, Table 3
Experimental: as §6, §4, §5, §7, §8

Treponema denticola [9] = test: as above; format: cell-based; settings: four strains, Table 3
Experimental: as §6, §4, §5, §7, §8

[10] = system: Actinobacillus actinomycetemcomitans; test: as above; format: cell-based; settings: four strains, Table 3
Experimental: as §6, §4, §5, §7, §8

B. gingivalis = test: as above; format: cell-based; settings: five strains, Table 3
Experimental: as §6, §4, §5, §7, §8

[11] = Localized juvenile periodontitis subjects
[12] = Gingivitis subject 1 (spirochete 7.3 %)
[13] = Gingivitis subject 2 (spirochete 16.7 %)
[14] = Gingivitis subject 3 (spirochete 20.5 %)
[15] = Gingivitis subject 4 (spirochete 6.8 %)
[16] = Gingivitis subject 5 (spirochete 7.3 %)
[17] = Gingivitis subject 6 (spirochete 14.4 %)
[18] = Healthy subject 1 (spirochete 0.1 %)
[19] = Healthy subject 2 (spirochete 2.5 %)
[20] = Healthy subject 3 (spirochete 1.1 %)
[21] = Healthy subject 4 (spirochete 0.6 %)
[22] = Healthy subject 5 (spirochete 1.3 %)
[23] = Periodontitis subject 1 (spirochete 45.2 %)
[24] = Periodontitis subject 2 (spirochete 30.3 %)
[25] = Periodontitis subject 3 (spirochete 34.6 %)
[26] = Periodontitis subject 4 (spirochete 21.2 %)
[27] = Periodontitis subject 5 (spirochete 40.3 %)
[28] = Periodontitis subject 6 (spirochete 35.1 %)

For `CC(C)[C@H](NC(=O)OCc1ccccc1)C(=O)NCC(=O)N[C@@H](CCCNC(=N)N)C(=O)Nc1ccc2ccccc2c1` [CxVGR, N-carbobenzoxy-valyl-glycyl-arginine-β-naphthylamide] (Cbz-Val-Gly-Arg-βNA), the “hydrolytic activity (average amount of released β-naphthylamine)” value (Capnocytophaga sp.) was “- (release amount<5 nmol/ml)”, the “hydrolytic activity (average amount of released β-naphthylamine)” value (Fusobacterium nucleatum [1]) was “- (release amount<5 nmol/ml)” and the “hydrolytic activity (average amount of released β-naphthylamine)” value (Bacteroides gingivalis) was “+++ (release amount≥40 nmol/ml)”. The “hydrolytic activity (average amount of released β-naphthylamine)” value (Treponema denticola [2]) was “+++ (release amount≥40 nmol/ml)”, the “hydrolytic activity (average amount of released β-naphthylamine)” value [3] was “- (release amount<5 nmol/ml)” and the hydrolytic activity ([4]; Adult Periodontitis subjects) was 35.6 ± 9.8 nmol/mL. For the same molecule, the hydrolytic activity ([4]; Healthy subjects) was 16.1 ± 10.3 nmol/mL, the hydrolytic activity [4, 11] was 33.4 ± 10.0 nmol/mL and the “hydrolytic activity, absorption at 525 nm (OD525)” value (“hydrolytic activity, absorption” for short) [5, 12] was “+ (0.1≤OD525 <0.2)”. The “hydrolytic activity, absorption” value [5, 13] was “+ (0.1≤OD525 <0.2)”, the “hydrolytic activity, absorption” value [5, 14] was “++ (0.2≤OD525 <0.4)” and the “hydrolytic activity, absorption” value [5, 15] was “- (OD525 <0.1)”. The “hydrolytic activity, absorption” value [5, 16] was “- (OD525 <0.1)”, the “hydrolytic activity, absorption” value [5, 17] was “+ (0.1≤OD525 <0.2)” and the “hydrolytic activity, absorption” value [5, 18] was “- (OD525 <0.1)”. The “hydrolytic activity, absorption” value [5, 19] was “+ (0.1≤OD525 <0.2)”, the “hydrolytic activity, absorption” value [5, 20] was “- (OD525 <0.1)” and the “hydrolytic activity, absorption” value [5, 21] was “- (OD525 <0.1)”. The “hydrolytic activity, absorption” value [5, 22] was “- (OD525 <0.1)”, the “hydrolytic activity, absorption” value [5, 23] was “+++ (0.4≤OD525 <0.8)” and the “hydrolytic activity, absorption” value [5, 24] was “+++ (0.4≤OD525 <0.8)”. The “hydrolytic activity, absorption” value [5, 25] was “+++ (0.4≤OD525 <0.8)”, the “hydrolytic activity, absorption” value [5, 26] was “+++ (0.4≤OD525 <0.8)” and the “hydrolytic activity, absorption” value [5, 27] was “+++ (0.4≤OD525 <0.8)”. For the same molecule, the “hydrolytic activity, absorption” value [5, 28] was “+++ (0.4≤OD525 <0.8)”, the “hydrolytic activity, visually evaluated” value [6, 12] was “+” and the “hydrolytic activity, visually evaluated” value [6, 13] was “+”. The “hydrolytic activity, visually evaluated” value [6, 14] was “++”, the “hydrolytic activity, visually evaluated” value [6, 15] was “-” and the “hydrolytic activity, visually evaluated” value [6, 16] was “-”. The “hydrolytic activity, visually evaluated” value [6, 17] was “+”, the “hydrolytic activity, visually evaluated” value [6, 18] was “-” and the “hydrolytic activity, visually evaluated” value [6, 19] was “+”. For the same molecule, the “hydrolytic activity, visually evaluated” value [6, 20] was “-”, the “hydrolytic activity, visually evaluated” value [6, 21] was “-” and the “hydrolytic activity, visually evaluated” value [6, 22] was “-”. For the same molecule, the “hydrolytic activity, visually evaluated” value [6, 23] was “+++”, the “hydrolytic activity, visually evaluated” value [6, 24] was “+++” and the “hydrolytic activity, visually evaluated” value [6, 25] was “+++”. The “hydrolytic activity, visually evaluated” value [6, 26] was “+++”, the “hydrolytic activity, visually evaluated” value [6, 27] was “+++” and the “hydrolytic activity, visually evaluated” value [6, 28] was “+++”. For the same molecule, the hydrolytic activity ([7]; Adult Periodontitis subjects) was 34.8 ± 10.2 nmol/mL, the hydrolytic activity ([7]; Healthy subjects) was 15.0 ± 8.8 nmol/mL and the hydrolytic activity [7, 11] was 31.5 ± 9.8 nmol/mL. The “hydrolytic activity (release amount)” value (Actinomyces israelli) was “- (release amount<5 nmol/ml)”, the “hydrolytic activity (release amount)” value (Fusobacterium nucleatum [8]) was “- (release amount<5 nmol/ml)” and the “hydrolytic activity (release amount)” value (Treponema denticola [9]) was “+++ (40≤release amount<80 nmol/ml)”. For the same molecule, the “hydrolytic activity (release amount)” value [10] was “- (release amount<5 nmol/ml)” and the “hydrolytic activity (release amount)” value (B. gingivalis) was “+++ (40≤release amount<80 nmol/ml)”.
